Nine compounds from ChEMBL document CHEMBL4190184, “Synthesis and Biological Evaluation of Benzocyclooctene-based and Indene-based Anticancer Agents that Function as Inhibitors of Tubulin Polymerization” (Medchemcomm, 2016) can be followed below.

Activity calls are given as the source filed them. No cut-off for these calls is given here. Where only a bound is given, the exact number is not on record here.

The IC50 is the concentration at which inhibition is half-maximal. As usually defined, the GI50 is the concentration that inhibits growth by half. What is called inhibition is how much of the control response was suppressed.

The nature of assay [1]: Inhibition of bovine brain tubulin polymerization preincubated for 15 mins followed by GTP addition measured after 20 mins by spectrophotometric method. Details: species or system Bos taurus.
Assay [2] deals with DU-145. In words: Growth inhibition of human DU145 cells after 48 hrs by SRB assay. Format: functional. Conditions: DU-145, 48 h.
Assay [3] relates to SK-OV-3. In words: Growth inhibition of human SKOV3 cells after 48 hrs by SRB assay. The format is functional. Conditions: SK-OV-3, 48 h. For orientation: Sulforhodamine B stains cellular protein and so reports cell mass.
The test system of assay [4] is NCI-H460. In words: Growth inhibition of human NCI-H460 cells after 48 hrs by SRB assay. The format is functional. Conditions: NCI-H460, 48 h.
The subject of assay [5] is MCF7. In words: Induction of vascular disruption in human luc-GFP-mCherry-tagged MCF7 cells implanted in SCID-NOD mouse assessed as reduction in bioluminescence at 120 mg/kg, ip administered as single dose measured at 24 to 48 hrs post dose by luciferase reporter gene based imaging analysis. Format: functional, organism-based. In general terms: Reporter assays use an easily measured gene product as a stand-in for the process of interest.

The subject of assay [6] is MCF7. In words: Induction of vascular disruption in human luc-GFP-mCherry-tagged MCF7 cells implanted in SCID-NOD mouse assessed as reduction in bioluminescence at 120 mg/kg, ip administered as single dose measured at 4 hrs post dose by luciferase reporter gene based imaging analysis relative to control. Format: functional. Also noted: scale not given: the % may be the effect or the level left.

The test system of assay [7] is MCF7. In words: Induction of necrosis in human luc-GFP-mCherry-tagged MCF7 cells implanted in SCID-NOD mouse at 120 mg/kg, ip administered as single dose measured after 48 hrs by haematoxylin and eosin staining based microscopy. The format is functional, organism-based.
For assay [8], the species on record is Bos taurus. In words: Inhibition of [3H]colchicine binding to bovine brain tubulin at 5 uM after 10 mins by scintillation counting method relative to control.

In turn, `COc1ccc2c(c1)CC=C2c1cc(OC)c(OC)c(OC)c1` came in with an IC50 in assay [1] above 20 µM. For the same compound, the figures for the GI50 in assay [2], in assay [3] and in assay [4] were 4.66 µM, 6.15 µM and 4.02 µM, respectively.

Take `COc1cc(C2=CCc3c2ccc(OC)c3OC)cc(OC)c1OC`: the IC50 in assay [1] is above 20 µM. The GI50 amounted to 34.6 µM in assay [2], 9.46 µM in assay [3] and 42.2 µM in assay [4].

On to `COc1cc(/C2=C/CCCCc3c2ccc(OC)c3OP(=O)([O-])[O-])cc(OC)c1OC.[Na+].[Na+]`, for which the IC50 in assay [1] is above 20 µM. The GI50 in assay [2] is 0.041 µM; in assay [3], 0.0366 µM; in assay [4], 0.026 µM. Besides, the result in assay [5] and in assay [7] was Active. Also, the Activity in assay [6] was 80%.

For the compound `COc1ccc2c(c1O)CC=C2c1cc(OC)c(OC)c(OC)c1`, the IC50 in assay [1] came out at 11 µM. Also, the GI50 was found to be 0.362 µM in assay [2], 0.704 µM in assay [3] and 0.388 µM in assay [4]. In assay [8], the inhibition is 17%.

Regarding `COc1ccc2c(c1)CCCC/C=C\2c1cc(OC)c(OC)c(OC)c1`, the IC50 in assay [1] is 3 µM. Further, the GI50 in assay [2] is 0.57 µM; in assay [3] it was 0.4 µM; in assay [4], 0.431 µM. This compound also had an inhibition in assay [8] of 29%.

Turning to `COc1ccc(/C=C\c2cc(OC)c(OC)c(OC)c2)cc1OP(=O)(O)O` [FOSBRETABULIN], the IC50 in assay [1] was above 20 µM. Also, the GI50 amounted to 0.00336 µM in assay [2], 0.0019 µM in assay [3] and 0.00282 µM in assay [4]. For the same compound, the Activity in assay [6] turned out to be 80%. For the same compound, the outcome in assay [7] was Active.

In assay [1], `COc1ccc2c(c1O)CCCC/C=C\2c1cc(OC)c(OC)c(OC)c1` displayed an IC50 of 1.2 µM. In addition, the GI50 was determined as 0.105 µM in assay [2], 0.0811 µM in assay [3] and 0.107 µM in assay [4]. In assay [8], the inhibition was found to be 78%.

As to `COc1cc(C2=CCc3c2ccc(OC)c3OP(=O)(O)O)cc(OC)c1OC`, in assay [1], the IC50 is above 20 µM. For the same compound, the GI50 in assay [2] was found to be 3.34 µM; in assay [3], 0.334 µM; in assay [4], 1.5 µM.

For the compound `COc1cc(/C2=C/CCCCc3c2ccc(OC)c3OC)cc(OC)c1OC`, the IC50 in assay [1] amounted to 4.5 µM. For the same compound, the GI50 is 0.448 µM in assay [2], 0.512 µM in assay [3] and 0.395 µM in assay [4]. In assay [8], this compound had an inhibition of 31%.
